This is an account of results in ChEMBL document CHEMBL3991601, “The target landscape of clinical kinase drugs” (Science, 2017).

The source made the active and inactive calls. Rule as the data show it, for most assays here: actives have a measured Kd and inactives only a lower limit.

For experiment [1], the target named is T1, NUAK family SNF1-like kinase 2 (Homo sapiens, UniProt Q9H093).
T1 sequence (Q9H093 whole entry): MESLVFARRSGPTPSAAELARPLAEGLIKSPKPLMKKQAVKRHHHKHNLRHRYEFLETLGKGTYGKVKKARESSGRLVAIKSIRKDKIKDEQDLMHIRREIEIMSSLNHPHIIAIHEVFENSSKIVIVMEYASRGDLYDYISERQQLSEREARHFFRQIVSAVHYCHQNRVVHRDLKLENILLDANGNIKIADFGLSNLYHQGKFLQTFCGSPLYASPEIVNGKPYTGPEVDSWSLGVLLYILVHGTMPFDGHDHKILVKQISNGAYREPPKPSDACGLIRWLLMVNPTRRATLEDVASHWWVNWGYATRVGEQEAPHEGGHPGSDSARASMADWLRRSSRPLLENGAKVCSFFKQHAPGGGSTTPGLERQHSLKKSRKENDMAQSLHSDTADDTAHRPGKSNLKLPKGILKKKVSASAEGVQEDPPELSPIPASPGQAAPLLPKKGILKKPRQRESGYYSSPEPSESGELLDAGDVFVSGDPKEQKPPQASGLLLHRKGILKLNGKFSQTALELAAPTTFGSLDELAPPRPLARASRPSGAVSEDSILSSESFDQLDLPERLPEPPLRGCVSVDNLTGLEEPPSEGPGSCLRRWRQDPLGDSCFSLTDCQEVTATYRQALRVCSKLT

For experiment [2], the target named is T2, Serine/threonine-protein kinase Nek3 (Homo sapiens, UniProt P51956).
T2 sequence (P51956 whole entry): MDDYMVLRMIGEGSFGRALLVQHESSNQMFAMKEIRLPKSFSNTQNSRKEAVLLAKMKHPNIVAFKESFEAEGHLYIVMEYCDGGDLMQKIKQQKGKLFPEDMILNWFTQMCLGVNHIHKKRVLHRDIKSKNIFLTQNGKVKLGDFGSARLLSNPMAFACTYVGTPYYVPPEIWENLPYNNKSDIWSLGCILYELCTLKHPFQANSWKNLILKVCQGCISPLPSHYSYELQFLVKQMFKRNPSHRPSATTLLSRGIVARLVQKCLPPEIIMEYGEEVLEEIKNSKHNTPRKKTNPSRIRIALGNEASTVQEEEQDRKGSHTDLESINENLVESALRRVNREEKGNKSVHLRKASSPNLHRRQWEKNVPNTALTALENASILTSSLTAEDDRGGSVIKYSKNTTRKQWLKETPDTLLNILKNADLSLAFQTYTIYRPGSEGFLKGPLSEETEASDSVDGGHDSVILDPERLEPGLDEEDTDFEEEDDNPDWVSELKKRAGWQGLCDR

Another experiment addresses T3, Heme oxygenase 2 (Homo sapiens, UniProt P30519).
T3 sequence (P30519 whole entry): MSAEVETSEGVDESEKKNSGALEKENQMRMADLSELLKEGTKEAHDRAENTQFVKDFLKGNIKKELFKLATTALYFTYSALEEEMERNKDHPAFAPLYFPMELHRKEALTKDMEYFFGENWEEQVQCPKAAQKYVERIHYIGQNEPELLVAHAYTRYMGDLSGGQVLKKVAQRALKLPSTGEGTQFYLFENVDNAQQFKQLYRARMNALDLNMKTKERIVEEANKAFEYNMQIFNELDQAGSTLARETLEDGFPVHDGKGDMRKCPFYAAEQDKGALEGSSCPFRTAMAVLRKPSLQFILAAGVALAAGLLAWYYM

Experiment [3] concerns the target Tyrosine-protein kinase Lyn (Homo sapiens, UniProt P07948).
Experiment [4] deals with Ribosomal protein S6 kinase alpha-4 (Homo sapiens, UniProt O75676).
The target of experiment [5] is Cyclin-dependent kinase 2 (Homo sapiens, UniProt P24941).
For another experiment, the target named is Obg-like ATPase 1 (Homo sapiens, UniProt Q9NTK5).
Experiment [6] deals with T4, Discoidin domain-containing receptor 2 (Homo sapiens, UniProt Q16832).
T4 sequence (Q16832 whole entry): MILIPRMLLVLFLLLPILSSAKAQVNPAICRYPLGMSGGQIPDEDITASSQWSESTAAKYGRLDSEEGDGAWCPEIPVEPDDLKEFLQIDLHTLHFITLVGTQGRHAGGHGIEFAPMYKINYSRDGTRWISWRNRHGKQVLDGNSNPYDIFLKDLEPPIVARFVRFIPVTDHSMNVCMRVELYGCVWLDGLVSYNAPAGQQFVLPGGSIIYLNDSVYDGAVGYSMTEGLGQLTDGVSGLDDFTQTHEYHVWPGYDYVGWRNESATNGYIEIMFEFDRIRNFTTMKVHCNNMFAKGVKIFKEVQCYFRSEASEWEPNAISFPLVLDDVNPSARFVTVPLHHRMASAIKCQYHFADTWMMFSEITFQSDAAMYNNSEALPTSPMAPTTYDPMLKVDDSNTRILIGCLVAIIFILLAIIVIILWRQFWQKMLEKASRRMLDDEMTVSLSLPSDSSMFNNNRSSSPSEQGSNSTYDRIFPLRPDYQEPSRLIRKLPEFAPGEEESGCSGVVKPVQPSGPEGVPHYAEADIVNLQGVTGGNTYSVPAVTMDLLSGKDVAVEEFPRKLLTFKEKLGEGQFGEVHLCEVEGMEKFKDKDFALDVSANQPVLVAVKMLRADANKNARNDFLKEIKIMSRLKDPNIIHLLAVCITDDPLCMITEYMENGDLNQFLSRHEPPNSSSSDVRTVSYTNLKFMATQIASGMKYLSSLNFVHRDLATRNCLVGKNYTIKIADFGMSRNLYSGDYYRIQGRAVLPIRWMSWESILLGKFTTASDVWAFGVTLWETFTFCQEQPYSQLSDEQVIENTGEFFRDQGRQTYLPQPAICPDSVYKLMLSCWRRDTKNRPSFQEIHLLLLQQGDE
Also: in the data inactive means no Kd found up to 30 µM.

Obg-like ATPase 1, sequence (Q9NTK5 whole entry, looked up, the tested form may be a part): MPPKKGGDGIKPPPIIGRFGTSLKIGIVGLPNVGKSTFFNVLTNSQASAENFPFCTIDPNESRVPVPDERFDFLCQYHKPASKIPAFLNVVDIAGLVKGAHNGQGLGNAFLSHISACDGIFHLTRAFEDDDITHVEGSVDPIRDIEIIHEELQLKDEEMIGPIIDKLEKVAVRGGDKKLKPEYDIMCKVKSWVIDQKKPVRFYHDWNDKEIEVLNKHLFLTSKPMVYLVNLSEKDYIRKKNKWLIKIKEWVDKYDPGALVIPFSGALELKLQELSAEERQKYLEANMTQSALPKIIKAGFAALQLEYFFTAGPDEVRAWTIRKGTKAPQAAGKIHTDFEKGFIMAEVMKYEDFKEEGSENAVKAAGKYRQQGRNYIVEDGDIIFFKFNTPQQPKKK
Ribosomal protein S6 kinase alpha-4, sequence (O75676 whole entry): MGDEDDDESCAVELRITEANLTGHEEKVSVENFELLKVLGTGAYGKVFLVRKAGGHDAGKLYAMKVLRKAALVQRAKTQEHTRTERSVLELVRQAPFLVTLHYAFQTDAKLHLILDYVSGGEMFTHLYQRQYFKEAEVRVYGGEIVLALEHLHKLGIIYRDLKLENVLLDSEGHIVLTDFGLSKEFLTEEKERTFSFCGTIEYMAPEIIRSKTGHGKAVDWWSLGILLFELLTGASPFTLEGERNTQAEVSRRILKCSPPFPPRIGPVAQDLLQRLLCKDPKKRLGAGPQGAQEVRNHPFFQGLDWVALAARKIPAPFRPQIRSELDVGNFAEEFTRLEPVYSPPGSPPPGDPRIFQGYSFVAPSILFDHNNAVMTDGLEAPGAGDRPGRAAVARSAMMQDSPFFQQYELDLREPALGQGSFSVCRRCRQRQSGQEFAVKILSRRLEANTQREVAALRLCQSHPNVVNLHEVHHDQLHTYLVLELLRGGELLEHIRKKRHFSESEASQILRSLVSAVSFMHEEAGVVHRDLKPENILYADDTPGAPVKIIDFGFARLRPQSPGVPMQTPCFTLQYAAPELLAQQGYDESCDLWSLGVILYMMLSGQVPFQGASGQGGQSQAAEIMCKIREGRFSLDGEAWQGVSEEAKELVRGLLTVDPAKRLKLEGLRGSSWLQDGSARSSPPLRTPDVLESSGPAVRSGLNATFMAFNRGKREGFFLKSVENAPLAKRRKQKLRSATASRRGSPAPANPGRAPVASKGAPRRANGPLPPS
Tyrosine-protein kinase Lyn, sequence (P07948 whole entry): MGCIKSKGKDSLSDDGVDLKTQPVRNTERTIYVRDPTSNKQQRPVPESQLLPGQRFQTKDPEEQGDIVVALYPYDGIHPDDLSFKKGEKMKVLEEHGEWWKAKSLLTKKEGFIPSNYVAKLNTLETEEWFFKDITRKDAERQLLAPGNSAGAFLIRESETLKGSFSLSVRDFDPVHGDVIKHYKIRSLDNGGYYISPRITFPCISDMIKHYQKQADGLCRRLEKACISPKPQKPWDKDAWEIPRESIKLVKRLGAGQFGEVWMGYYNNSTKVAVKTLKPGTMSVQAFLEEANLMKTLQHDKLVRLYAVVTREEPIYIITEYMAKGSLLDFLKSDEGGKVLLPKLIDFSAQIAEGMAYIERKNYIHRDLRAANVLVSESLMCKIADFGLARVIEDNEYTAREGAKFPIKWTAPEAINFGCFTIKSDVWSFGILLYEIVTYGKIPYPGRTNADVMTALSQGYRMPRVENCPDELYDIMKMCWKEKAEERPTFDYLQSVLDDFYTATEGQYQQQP

Broadly, the Kd is the constant that tells how readily two partners part at equilibrium. With `Cc1cc(Nc2nc(N[C@@H](C)c3ncc(F)cn3)ncc2Cl)n[nH]1` [AZD-1480], the Kd (in experiment [1]; in experiment [2]; at Heme oxygenase 2; in experiment [3]; in experiment [4]; in experiment [5]) was > 30 µM (inactive) each time. Moreover, the Kd (on Obg-like ATPase 1; in experiment [6]) was > 30 µM (inactive) each time.
`Cc1ccc(C(=O)Nc2ccc(Oc3cc4cnn(C)c4cc3-c3cn[nH]c3)c(F)c2)c(=O)n1-c1ccc(F)cc1` [MERESTINIB]: the Kd (in experiment [1]; in experiment [2]; at Heme oxygenase 2; in experiment [3]; in experiment [4]; in experiment [5]) was > 30 µM (inactive) in each case. For the same compound, the figures for the Kd (on Obg-like ATPase 1; in experiment [6]) were > 30 µM (inactive) and 0.908 µM (active), respectively.
Turning to `C#Cc1cccc(Nc2ncnc3cc4c(cc23)OCCOCCOCCO4)c1` [ICOTINIB], the Kd (in experiment [1]; in experiment [2]; at Heme oxygenase 2; in experiment [3]; in experiment [4]; in experiment [5]) was > 30 µM (inactive) each time. Besides, the Kd (on Obg-like ATPase 1; in experiment [6]) was > 30 µM (inactive) in each case.
As to `C=CCn1c(=O)c2cnc(Nc3ccc(N4CCN(C)CC4)cc3)nc2n1-c1cccc(C(C)(C)O)n1` [ADAVOSERTIB], the Kd is > 30 µM (inactive) in experiment [1]; 0.837 µM (active) in experiment [2]; > 30 µM (inactive) on Heme oxygenase 2; > 30 µM (inactive) in experiment [3]; > 30 µM (inactive) in experiment [4]; > 30 µM (inactive) in experiment [5]. Further, the Kd (at Obg-like ATPase 1; in experiment [6]) was > 30 µM (inactive) in each case.
Turning to `O=S(=O)(c1cccc2cnccc12)N1CCCNCC1` [FASUDIL], the Kd (in experiment [1]; in experiment [2]; on Heme oxygenase 2; in experiment [3]; in experiment [4]; on Obg-like ATPase 1) was > 30 µM (inactive) each time. In addition, in experiment [6], the Kd is > 30 µM (inactive).
As for `Cc1cc(-c2cc(OC(=O)c3ccccc3)ccc2Cl)cc2nnc(Nc3ccc(OCCN4CCCC4)cc3)nc12` [TG100-801], the Kd (in experiment [2]; at Heme oxygenase 2; in experiment [3]; in experiment [4]; in experiment [5]; on Obg-like ATPase 1) was > 30 µM (inactive) in each case. Further, the Kd in experiment [6] is > 30 µM (inactive).
Consider `N#CCNC(=O)c1ccc(-c2ccnc(Nc3ccc(N4CCOCC4)cc3)n2)cc1` [MOMELOTINIB], for which the Kd was > 30 µM (inactive) in experiment [1]; 0.286 µM (active) in experiment [2]; > 30 µM (inactive) at Heme oxygenase 2; > 30 µM (inactive) in experiment [4]; > 30 µM (inactive) on Obg-like ATPase 1; > 30 µM (inactive) in experiment [6].
On to `c1cc(OCCN2CCCCC2)cc(-c2n[nH]c3ccc(-c4nc[nH]n4)cc23)c1` [CC-401], for which the Kd (in experiment [1]; in experiment [2]; at Heme oxygenase 2; in experiment [3]; in experiment [4]; on Obg-like ATPase 1) was > 30 µM (inactive) throughout. For the same compound, in experiment [6], the Kd was > 30 µM (inactive).
`COc1cc2ncnc(Nc3ccc(O)cc3)c2cc1OC` [WHI-P131]: the Kd (in experiment [1]; in experiment [2]; at Heme oxygenase 2; in experiment [3]; in experiment [4]; at Obg-like ATPase 1) was > 30 µM (inactive) in each case. Moreover, the Kd in experiment [6] is > 30 µM (inactive).
In the case of `O=C(NC[C@H](O)CO)c1ccncc1Nc1ccc(I)cc1F` [PIMASERTIB], the Kd (in experiment [2]; on Heme oxygenase 2; in experiment [3]; in experiment [4]; in experiment [5]; at Obg-like ATPase 1) was > 30 µM (inactive) throughout. In addition, the Kd in experiment [6] is > 30 µM (inactive).
As for `Cn1c(=O)n(-c2ccc(C(C)(C)C#N)cc2)c2c3cc(-c4cnc5ccccc5c4)ccc3ncc21` [DACTOLISIB], the Kd (in experiment [1]; in experiment [2]; at Heme oxygenase 2; in experiment [3]; in experiment [4]; in experiment [5]) was > 30 µM (inactive) throughout. Moreover, the Kd at Obg-like ATPase 1 is > 30 µM (inactive).
On to `CC(C)CC(=O)Nc1[nH]nc2c1CN(C(=O)C1CCN(C)CC1)C2(C)C` [PHA-793887], for which the Kd (in experiment [1]; in experiment [2]; in experiment [3]; in experiment [4]; on Obg-like ATPase 1; in experiment [6]) was > 30 µM (inactive) in each case.
For `COc1ccc2c(OCc3nnc4ccc(-c5ccccc5)nn34)ccnc2c1` [AMG-208], the Kd (in experiment [2]; on Heme oxygenase 2; in experiment [3]; in experiment [4]; in experiment [5]; on Obg-like ATPase 1) was > 30 µM (inactive) in each case. Moreover, in experiment [6], the Kd is > 30 µM (inactive).
On to `CN(c1ncccc1CNc1nc(Nc2ccc3c(c2)CC(=O)N3)ncc1C(F)(F)F)S(C)(=O)=O` [PF-00562271], for which the Kd was > 30 µM (inactive) in experiment [1]; > 30 µM (inactive) in experiment [2]; > 30 µM (inactive) on Heme oxygenase 2; > 30 µM (inactive) in experiment [4]; 1.07 µM (active) in experiment [5]; > 30 µM (inactive) at Obg-like ATPase 1. In addition, in experiment [6], the Kd was > 30 µM (inactive).
For `C[C@@]1(C(=O)Nc2ccc(F)nc2)CCCN1c1nc(Nc2cc(C3CC3)n[nH]2)c2cccn2n1` [BMS-754807], the Kd on Heme oxygenase 2 and on Obg-like ATPase 1 was > 30 µM (inactive) in each case.
